Columns and labels:
Assay type in all cases: in vivo
Settings in all cases: foliar, compared to untreated control leaf disks, read-out: disease control
[1] = tested on: Puccinia recondita f. sp. tritici; assay: Puccinia recondita f. sp. tritici / wheat / leaf disc preventative (brown rust)
From the text: Puccinia recondita f. sp. tritici/Wheat/Leaf Disc Preventative (Brown Rust) Wheat leaf segments cv. Kanzler were placed on agar in multiwell plates (24-well format) and sprayed with the formulated test compound diluted in water. The leaf disks were inoculated with a spore suspension of the fungus 1 day after application.

[2] = tested on: Puccinia recondita f. sp. tritici; assay: Puccinia recondita f. sp. tritici / wheat / leaf disc curative (brown rust)
Experimental: Puccinia recondita f. sp. tritici/Wheat/Leaf Disc Curative (Brown Rust) Wheat leaf segments cv. Kanzler are placed on agar in multiwell plates (24-well format). The leaf segments are inoculated with a spore suspension of the fungus. Plates were stored in darkness at 19° C. and 75% rh. The formulated test compound diluted in water was applied 1 day after inoculation.

[3] = tested on: Blumeria graminis f. sp. tritici (Erysiphe graminis f. sp. tritici); assay: Blumeria graminis f. sp. tritici / wheat / leaf disc preventative (powdery mildew on wheat)
Experimental: Blumeria graminis f. sp. tritici (Erysiphe graminis f. sp. tritici)/Wheat/Leaf Disc Preventative (Powdery Mildew on Wheat)
Wheat leaf segments cv. Kanzler were placed on agar in a multiwell plate (24-well format) and sprayed with the formulated test compound diluted in water. The leaf disks were inoculated by shaking powdery mildew infected plants above the test plates 1 day after application. The inoculated leaf disks were incubated at 20° C. and 60% rh under a light regime of 24 h darkness followed by 12 h light/12 h darkness in a climate chamber and the activity of a compound was assessed as percent disease control compared to untreated when an appropriate level of disease damage appears on untreated check leaf segments (6-8 days after application).
The following compounds gave at 200 ppm give at least 50% disease control in this test when compared to untreated control leaf disks under the same conditions, which show extensive disease development: […]

In the case of `CCN(C)/C=N/c1cc(Br)c(OC2CCC(=O)CC2C)nc1C` (single isomer, unassigned) [Q.332], the pest or weed control at 200 ppm [1] is reported as ≥ 50%, the pest or weed control at 200 ppm [2] is reported as ≥ 50% and the pest or weed control at 200 ppm [3] is reported as ≥ 50%.
`CN/C=N/c1cc(Br)c(OCCCC(C)C)nc1C` [Q.003] was tested, and the pest or weed control at 200 ppm [1] was ≥ 50%.
In the case of `Cc1nc(OCCCC(C)C)c(Br)cc1/N=C/N(C)C` [Q.006], the pest or weed control at 200 ppm [1] is reported as ≥ 50%, the pest or weed control at 200 ppm [2] is reported as ≥ 50% and the pest or weed control at 200 ppm [3] is reported as ≥ 50%.
In the case of `Cc1nc(OCCCC(C)C)c(Br)cc1/N=C/NC(C)C` [Q.008], the pest or weed control at 200 ppm [1] is reported as ≥ 50%.
For `Cc1nc(OCCCC(C)C)c(Br)cc1/N=C/NC(C)(C)C` [Q.009], the pest or weed control at 200 ppm [1] was ≥ 50%.
For `CCCN/C=N/c1cc(Br)c(OCCCC(C)C)nc1C` [Q.010], the pest or weed control at 200 ppm [1] was ≥ 50%, the pest or weed control at 200 ppm [2] was ≥ 50% and the pest or weed control at 200 ppm [3] was ≥ 50%.
In the case of `CCN(C)/C=N/c1cc(Br)c(OCCCC2CCCCC2)nc1C` [Q.017], the pest or weed control at 200 ppm [1] is reported as ≥ 50% and the pest or weed control at 200 ppm [3] is reported as ≥ 50%.
`CCN(C)/C=N/c1cc(Br)c(OC2Cc3cc(Br)c(Br)cc3C2)nc1C` [Q.030] was tested, and the pest or weed control at 200 ppm [1] was ≥ 50%, the pest or weed control at 200 ppm [2] was ≥ 50% and the pest or weed control at 200 ppm [3] was ≥ 50%.
In the case of `CCN(C)/C=N/c1cc(Br)c(OC2CCC(=O)CC2)nc1C` [Q.031], the pest or weed control at 200 ppm [1] is reported as ≥ 50%, the pest or weed control at 200 ppm [2] is reported as ≥ 50% and the pest or weed control at 200 ppm [3] is reported as ≥ 50%.
In the case of `CCN(C)/C=N/c1cc(Br)c(OCCCC(O)COC)nc1C` (centres unmarked) [Q.036], the pest or weed control at 200 ppm [1] is reported as ≥ 50%, the pest or weed control at 200 ppm [2] is reported as ≥ 50% and the pest or weed control at 200 ppm [3] is reported as ≥ 50%.
`CCN(C)/C=N/c1cc(Br)c(OCCCCc2ccc(Cl)cc2)nc1C` [Q.045] was tested, and the pest or weed control at 200 ppm [1] was ≥ 50%, the pest or weed control at 200 ppm [2] was ≥ 50% and the pest or weed control at 200 ppm [3] was ≥ 50%.
In the case of `CCN(C)/C=N/c1cc(Br)c(OC2CCCc3ccc(F)cc32)nc1C` (centres unmarked) [Q.048], the pest or weed control at 200 ppm [1] is reported as ≥ 50%, the pest or weed control at 200 ppm [2] is reported as ≥ 50% and the pest or weed control at 200 ppm [3] is reported as ≥ 50%.
In the case of `CCN(C)/C=N/c1cc(Br)c(OC2CCCC3CCCCC32)nc1C` (centres unmarked) [Q.049], the pest or weed control at 200 ppm [1] is reported as ≥ 50%, the pest or weed control at 200 ppm [2] is reported as ≥ 50% and the pest or weed control at 200 ppm [3] is reported as ≥ 50%.
`CCN(C)/C=N/c1cc(Br)c(OC2CCc3c(OC)cccc32)nc1C` (centres unmarked) [Q.050] was tested, and the pest or weed control at 200 ppm [1] was ≥ 50%, the pest or weed control at 200 ppm [2] was ≥ 50% and the pest or weed control at 200 ppm [3] was ≥ 50%.
With `CCN(C)/C=N/c1cc(Br)c(OCCO)nc1C` [Q.056] the pest or weed control at 200 ppm [1] was ≥ 50%.
With `CCN(C)/C=N/c1cc(Br)c(OCCOCOC)nc1C` [Q.061] the pest or weed control at 200 ppm [1] was ≥ 50%.
`CCN(C)/C=N/c1cc(Br)c(OC2CC(C)CCC2C(C)C)nc1C` (centres unmarked) [Q.083] was tested, and the pest or weed control at 200 ppm [1] was ≥ 50%.
In the case of `CCN(C)/C=N/c1cc(Br)c(OCc2ccc(Cl)cc2Cl)nc1C` [Q.096], the pest or weed control at 200 ppm [1] is reported as ≥ 50% and the pest or weed control at 200 ppm [2] is reported as ≥ 50%.
In the case of `CCN(C)/C=N/c1cc(Br)c(OCc2cc(-c3ccccc3)ns2)nc1C` [Q.107], the pest or weed control at 200 ppm [1] is reported as ≥ 50%.
`CCN(C)/C=N/c1cc(Br)c(OCc2snc(-c3ccccc3)c2Br)nc1C` [Q.108] was tested, and the pest or weed control at 200 ppm [1] was ≥ 50% and the pest or weed control at 200 ppm [3] was ≥ 50%.
In the case of `CCN(C)/C=N/c1cc(Br)c(OC2CCCc3ccccc32)nc1C` (centres unmarked) [Q.138], the pest or weed control at 200 ppm [1] is reported as ≥ 50%.
`CCN(C)/C=N/c1cc(Br)c(OC2Cc3ccc(-c4ccccc4)cc3C2)nc1C` (centres unmarked) [Q.142] was tested, and the pest or weed control at 200 ppm [1] was ≥ 50% and the pest or weed control at 200 ppm [3] was ≥ 50%.
In the case of `CCCC(CCC)Oc1nc(C)c(/N=C/N(C)CC)cc1Br` [Q.150], the pest or weed control at 200 ppm [1] is reported as ≥ 50%.
In the case of `CCN(C)/C=N/c1cc(Br)c(OCc2snc(-c3ccc(F)cc3)c2C#N)nc1C` [Q.157], the pest or weed control at 200 ppm [1] is reported as ≥ 50%.
For `CCN(C)/C=N/c1cc(Br)c(OC2CCNCC2)nc1C` [Q.159], the pest or weed control at 200 ppm [1] was ≥ 50% and the pest or weed control at 200 ppm [2] was ≥ 50%.
In the case of `CCN(C)/C=N/c1cc(Br)c(OC2C=C(C)CCC2)nc1C` (centres unmarked) [Q.173], the pest or weed control at 200 ppm [1] is reported as ≥ 50%.
For `CCN(C)/C=N/c1ccc(O[C@H]2CC[C@H](C(C)C)CC2)nc1C` [Q.182], the pest or weed control at 200 ppm [1] was ≥ 50% and the pest or weed control at 200 ppm [2] was ≥ 50%.
In the case of `CCN(/C=N/c1cc(Br)c(OC(C)c2cc(F)cc(F)c2)nc1C)CC` (centres unmarked) [Q.187], the pest or weed control at 200 ppm [1] is reported as ≥ 50% and the pest or weed control at 200 ppm [3] is reported as ≥ 50%.
`C#CCN(C)/C=N/c1cc(Br)c(OC(C)c2cc(F)cc(F)c2)nc1C` (centres unmarked) [Q.189] was tested, and the pest or weed control at 200 ppm [1] was ≥ 50%.
`C#CC(C)N(C)/C=N/c1cc(Br)c(OC(C)c2cc(F)cc(F)c2)nc1C` (centres unmarked) [Q.190] was tested, and the pest or weed control at 200 ppm [1] was ≥ 50%.
`Cc1nc(OC(C)c2cc(F)cc(F)c2)c(Br)cc1/N=C/N1CC=CC1` (centres unmarked) [Q.194] was tested, and the pest or weed control at 200 ppm [1] was ≥ 50% and the pest or weed control at 200 ppm [2] was ≥ 50%.
In the case of `CCN(C)/C=N/c1cc(Br)c(OCc2snc(-c3ccccc3)c2C#N)nc1C` [Q.210], the pest or weed control at 200 ppm [1] is reported as ≥ 50%.
With `CCN(C)/C=N/c1cc(Br)c(OC(CC(C)C)CC(C)C)nc1C` [Q.234] the pest or weed control at 200 ppm [1] was ≥ 50%.
With `CC#Cc1cc(/N=C/N(C)CC)c(C)nc1OC1CCC(C(C)C)CC1` (centres unmarked) [Q.254] the pest or weed control at 200 ppm [1] was ≥ 50% and the pest or weed control at 200 ppm [2] was ≥ 50%.
With `CCN(C)/C=N/c1cc([Si](C)(C)C)c(OCc2ccccc2C)nc1C` [Q.257] the pest or weed control at 200 ppm [1] was ≥ 50% and the pest or weed control at 200 ppm [2] was ≥ 50%.
`CCN(C)/C=N/c1cc([Si](CC)(CC)CC)c(OCc2ccccc2C)nc1C` [Q.258] was tested, and the pest or weed control at 200 ppm [1] was ≥ 50% and the pest or weed control at 200 ppm [2] was ≥ 50%.
`CCC[Si](CCC)(CCC)c1cc(/N=C/N(C)CC)c(C)nc1OCc1ccccc1C` [Q.259] was tested, and the pest or weed control at 200 ppm [1] was ≥ 50%.
In the case of `CCN(C)/C=N/c1cc(-c2ccc(F)cc2)c(OC(C)c2cc(F)cc(F)c2)nc1C` (centres unmarked) [Q.264], the pest or weed control at 200 ppm [1] is reported as ≥ 50%.
In the case of `CCN(C)/C=N/c1cc(-c2cccnc2)c(OC(C)c2cc(F)cc(F)c2)nc1C` (centres unmarked) [Q.266], the pest or weed control at 200 ppm [1] is reported as ≥ 50%.
In the case of `CCCc1ccc(-c2cc(/N=C/N(C)CC)c(C)nc2OC(C)c2cc(F)cc(F)c2)cc1` (centres unmarked) [Q.267], the pest or weed control at 200 ppm [1] is reported as ≥ 50% and the pest or weed control at 200 ppm [3] is reported as ≥ 50%.
In the case of `CCN(C)/C=N/c1cc(Br)c(O[C@H]2CC[C@H](C(C)C)CC2)nc1C` [Q.268], the pest or weed control at 200 ppm [1] is reported as ≥ 50%.
For `CCN(C)/C=N/c1cc(Br)c(OC(C)C[Si](C)(C)C)nc1C` (centres unmarked) [Q.272], the pest or weed control at 200 ppm [1] was ≥ 50% and the pest or weed control at 200 ppm [3] was ≥ 50%.
For `CCN(C)/C=N/c1cc(Br)c(OC(C)(C)c2ccccc2)nc1C` [Q.279], the pest or weed control at 200 ppm [1] was ≥ 50% and the pest or weed control at 200 ppm [2] was ≥ 50%.
`CCN(C)/C=N/c1cc(Br)c(OC(C)c2cccc(C#Cc3ccccc3)c2)nc1C` (centres unmarked) [Q.312] was tested, and the pest or weed control at 200 ppm [1] was ≥ 50% and the pest or weed control at 200 ppm [3] was ≥ 50%.
`CCN(C)/C=N/c1cc(Br)c(OC(C)c2ccccc2C#Cc2ccccc2)nc1C` (centres unmarked) [Q.313] was tested, and the pest or weed control at 200 ppm [1] was ≥ 50%.
In the case of `CCN(C)/C=N/c1cc(Br)c(OC(C)c2ccccc2CCc2ccccc2)nc1C` (centres unmarked) [Q.314], the pest or weed control at 200 ppm [1] is reported as ≥ 50%.
`CCN(C)/C=N/c1cc(Br)c(OCc2cccc(N)c2)nc1C` [Q.328] was tested, and the pest or weed control at 200 ppm [1] was ≥ 50%.
In the case of `CCN(C)/C=N/c1cc(C(C)C)c(OC2CCC(C(C)C)CC2)nc1C` (centres unmarked) [Q.343], the pest or weed control at 200 ppm [1] is reported as ≥ 50% and the pest or weed control at 200 ppm [3] is reported as ≥ 50%.
For `CCC(Oc1ccc(/N=C/N(C)C(C)C)c(C)n1)c1ccccc1` (centres unmarked) [Q.348], the pest or weed control at 200 ppm [1] was ≥ 50% and the pest or weed control at 200 ppm [2] was ≥ 50%.
For `Cc1cc(C)cc(CC(C)Oc2ccc(/N=C/N(C)C(C)C)c(C)n2)c1` (centres unmarked) [Q.362], the pest or weed control at 200 ppm [1] was ≥ 50% and the pest or weed control at 200 ppm [2] was ≥ 50%.
For `CCN(C)/C=N/c1ccc(OCc2cc(OC)cc(OC)c2)nc1C` [Q.372], the pest or weed control at 200 ppm [1] was ≥ 50% and the pest or weed control at 200 ppm [2] was ≥ 50%.
With `CCN(C)/C=N/c1cc(Br)c(O)nc1C` [Q.379] the pest or weed control at 200 ppm [1] was ≥ 50%.
With `CCN(C)/C=N/c1cc(Br)c(OC)nc1C` [Q.387] the pest or weed control at 200 ppm [1] was ≥ 50%.

— US9326513B2, “Fungicidal compositions” (Syngenta Participations AG, priority 2011, dated 2016)
